The assay in a line: Replicon Assay (luciferase, ET cell line). Type of assay: cell-based, HCV. The conditions noted are these: Hepatitis C virus; % inhibition of replication relative to no compound control, test concentration of 10 μM; ET cells, luciferase read 48-72 hours; read-out: % inhib at 10 uM.

Turning to `O=C(Nc1ccc(-c2cccc(COc3ccccc3)c2)cc1)[C@@H]1CCCN1C(=O)OCc1ccccc1` [Compound 6021, 2-(3′-Phenoxymethyl-biphenyl-4-ylcarbamoyl)-pyrrolidine-1-carboxylic acid benzyl ester], the inhibition at 10 µM was 56.1%.

In the case of `O=C(Nc1ccc(Cc2nc3cc4ccccc4cc3[nH]2)cc1)[C@@H]1CCCN1C(=O)OCc1ccccc1` [Compound 6020, 2-[4-(1H-Naphtho[2,3-d]imidazol-2-ylmethyl)-phenylcarbamoyl]-pyrrolidine-1-carboxylic acid benzyl ester], the inhibition at 10 µM is 99.9%.

As to `Cc1c(N)cccc1-c1cccc(NC(=O)[C@@H]2CCCN2C(=O)OCc2ccccc2)c1` [Compound 6090, 2-(3′-Amino-2′-methyl-biphenyl-3-ylcarbamoyl)-pyrrolidine-1-carboxylic acid benzyl ester], the inhibition at 10 µM was determined as 59.6%.

As to `O=C(Nc1ccc(-c2nnc(-c3ccco3)o2)cc1)[C@@H]1CCCN1C(=O)OCc1ccccc1` [Compound 6025, 2-[4-(5-Furan-2-yl-[1,3,4]oxadiazol-2-yl)-phenylcarbamoyl]-pyrrolidine-1-carboxylic acid benzyl ester], the inhibition at 10 µM was determined as 5.45%.

As to `NC(=O)Nc1cccc(-c2cccc(NC(=O)[C@@H]3CCCN3C(=O)OCc3ccccc3)c2)c1` [Compound 6093, 2-(3′-Ureido-biphenyl-3-ylcarbamoyl)-pyrrolidine-1-carboxylic acid benzyl ester], the inhibition at 10 µM is 98.1%.

For the compound `O=C(Nc1cccc(Oc2ccccc2)c1)[C@@H]1CCCN1C(=O)OCc1ccccc1` [Compound 6034, 2-(3-Phenoxy-phenylcarbamoyl)-pyrrolidine-1-carboxylic acid benzyl ester], the inhibition at 10 µM is 26.7%.

Consider `Nc1cc(-c2cccc(NC(=O)[C@@H]3CCCN3C(=O)OCc3ccccc3)c2)cc(C(F)(F)F)c1` [Compound 6095, 2-(3′-Amino-5′-trifluoromethyl-biphenyl-3-ylcarbamoyl)-pyrrolidine-1-carboxylic acid benzyl ester], for which the inhibition at 10 µM is 61.6%.

Consider `CC(=O)c1ccc(-c2cccc(NC(=O)[C@@H]3CCCN3C(=O)OCc3ccccc3)c2)cc1` [Compound 6052, 2-(4′-Acetyl-biphenyl-3-ylcarbamoyl)-pyrrolidine-1-carboxylic acid benzyl ester], for which the inhibition at 10 µM amounted to 48.3%.

On to `Nc1cccc(-c2cccc(NC(=O)[C@@H]3CCCN3C(=O)OCc3ccccc3)c2)c1` [Compound 6054, 2-(3′-Amino-biphenyl-3-ylcarbamoyl)-pyrrolidine-1-carboxylic acid benzyl ester], for which the inhibition at 10 µM came to 97.7%.

Consider `O=C(Nc1cccc(-c2ccc3ncsc3c2)c1)[C@@H]1CCCN1C(=O)OCc1ccccc1` [Compound 6304, 2-(3-Benzothiazol-6-yl-phenylcarbamoyl)-pyrrolidine-1-carboxylic acid benzyl ester], for which the inhibition at 10 µM came out at 70.4%.

The values above are taken from patent US7629340B2, “N-(6-membered aromatic ring)-amido anti-viral compounds” (SmithKline Beecham Corporation, priority 2005, dated 2009).
